Patent publication US12285459B2, “Saposin-A derived peptides and uses thereof” (CHILDREN'S MEDICAL CENTER CORPORATION, priority 2011, dated 2025)

Columns and labels:
[1] = test system: Tsp-1 and p53 expression in lungs; test: Tumor-free mice given PC3M-LN4 conditioned media plus peptide; Tsp-1/p53 in tissue by western blot; type: in vivo, C57Bl6 mice; conditions: PC3M-LN4 CM in combination with peptide; Western blot, FIG. 3
Method: For tumor-free analysis C57Bl6 mice were treated with 200 uL of PC3M-LN4 media alone or in combination with peptides described above at dose of 30 mg/kg/day for 5 days. After treatment the animals were sacrificed and the lungs were harvested, lysed and analyzed for Tsp-1 and p53 protein levels as described previously (Kang et al).
It was sought to determine whether there was a smaller domain within saposin A that contained the p53/Tsp-1 stimulating activity. […] C57Bl6 mice (5-6 wks old) were injected daily with 300 uL of serum free DMEM, conditioned media (CM) from non-metastatic PC3 cells, CM from metastatic PC3M-LN4 cells and PC3M-LN4 CM plus 30 mg/kg of the pegylated 6 amino acid polypeptide (PEG2000-CDWLPK (SEQ ID NO: 46)) or 30 mg/kg of the pegylated 18 amino acid polypeptide (PEG2000-[…] (SEQ ID NO: 47)). After 9 days the mice were euthanized and the lungs and livers harvested and either fixed in formalin or lysed for Western blot analysis.
Finally, the effect of substituting D-amino acids at different residues of the 4-amino acid peptide was analyzed. By Western blot analysis it was observed that substituting the first and third or second and fourth residues, in combination, had no effect on the Tsp-1 stimulating activity in vitro. These peptides were then tested in the tumor-free animal model described above. The normal 4-amino acid peptide and the D-amino acid substituted peptides were injected in combination with conditioned media from PC3M-LN4 cells in adult C57Bl6 mice for 4 days at a dose of 10 or 30 mg/kg/day via i.p. injection. Mice were sacrificed 24 hours after the treatment on day 4. The lungs of these mice were harvested and analyzed the Tsp-1 expression by Western blot analysis. […]
Methods: 18 C57Bl6 mice were injected with Ac-dWlP-amide (SEQ ID NO: 132) at a dose of 30 mg/kg in a volume of 100 μL via intraperitoneal (i.p) injections in serum starved conditioned media from PC3M-LN4 prostate cancer cells. […] The relative intensity of the Tsp-1 (normalized to β-Actin) bands were determined using a Bio-Rad Chemi-Doc XRS system.

[2] = test system: Tsp-1 expression in Gr1+ cells; test: Tsp-1 in Gr1+ cells in lungs of mice given PC3M-LN4 CM plus peptide; type: in vivo, C57BL/6J mice
Method: CM from PC3M-LN4 cells cultured in serum-free medium for 24 hours was harvested, centrifuged and filtered through […] pore-size filters to remove any cells or cell debris. Wild-type C57BL/6J mice were treated with 200 μL serum-free conditioned media from PC3M-LN4 cells daily for 6 days via intraperitoneal (i.p.) injection in combination with DWLPK (SEQ ID NO: 4) peptide or scrambled peptide.
Animals were euthanized at the end of experiments and lungs were quickly perfused by injecting 5 ml of cold PBS through the right ventricle of the heart. One part of the lung from each animal was fixed in 3.7% formalin and the other part was sorted by flow cytometry for either protein or RNA extraction.
For microscopy, following formalin fixation, tissues were cryoembedded in Tissue-Tek O.C.T. embedding compound (Electron Microscopy Sciences). Sections (30 μm) were washed 3 times in PBS and incubated in blocking/permeabilization buffer (PBS+2 mM EDTA, 1% BSA, 1% Goat Serum, 0.05% Triton X-100). […]
Total RNA from flow cytometry sorted cells was extracted using the PicoPure RNA extraction kit (Arcturus) following the manufacturer's protocol. […] The relative abundance of each transcript compared with the control was calculated utilizing the delta-Ct method.

[3] = test system: Tsp-1 and p53 expression in prostate fibroblasts; test: Tsp-1 and p53 expression in prostate fibroblasts treated with peptides, western blot; type: cell-based; conditions: FIG. 2; compared with the longer peptide of the 35-40 region
Method: Methods of assaying the effects of a polypeptide described herein on Tsp-1 and p53 expression are described herein. Briefly, a control Psap alongside a test polypeptide, is applied to a cell culture of prostate fibroblasts. The conditioned media from PC3M-LN4 (LN4) and PC3 cells are used as controls, with PC3 as positive/stimulating control and LN4 as negative/inhibiting controls. After a period of incubation (˜16 h), the cells are harvested, rinsed, and lysed. The lysates are analyzed for the level of Tsp-1 and p53 expression by western blot analyses, with β-actin as the internal lysate protein loading control.
These peptides were used to treat prostate and lung fibroblasts in vitro at a concentration of 10 ug/mL for 16 hours in ATCC-specified media supplemented with 0.1% FBS. Tsp-1 and p53 expression was analyzed by western blot as described previously (Kang, Y., et al., (2003) Cancer Cell 3:537-549.)

## DWLPK [5-amino acid peptide corresponding to residues 36-40 of saposin A]
[1]
  Tsp-1 and p53 expression in the lungs above basal levels: 6 fold
[2]; LN4 CM alone or in combination with peptide
  recruitment of Gr1+ cells in the lungs: identical regardless of the treatment
[2]; LN4 CM daily for 6 days i.p. in combination with peptide
  Tsp-1 expression in the Gr1+ cells: more than two fold
[3]
  ability to stimulate Tsp-1 in prostate fibroblasts after removing a terminal residue: increased the ability of the resulting 5-amino acid peptide to stimulate Tsp-1
